Measured values published in PMC9226124, “Macrocycle-stabilization of its interaction with 14-3-3 increases plasma membrane localization and activity of CFTR” (Nature Communications, 2022).
Values joined by “and” are separate entries in the source; they are usually repeats but may differ in a detail not shown here. Equal entries are not always repeated.

Key:
[1] = molecular target: T1, FITC-labeled CFTRpS753pS768 peptide (no 14-3-3) (Homo sapiens, UniProt P13569); assay: Dose-response FP control assay in the absence of 14-3-3; type: binding; conditions: for FP signal: No 14-3-3; for Polarization in the absence of 14-3-3, background subtracted: replicates
T1 construct: made in house; host or cells: synthetic peptide
Description: (§1) The 14-3-3β concentration used for the FP screening assay was 10 μM (dashed line). c HTS FP assay of the Cyclenium library. The samples contain 100 nM of FITC-CFTR_pS753pS768 peptide, 10 μM 14-3-3β, and 50 μM compound. FC-A (100 µM) was added as a positive control and DMSO as the negative control. Hit compounds are defined as a polarization increase which is higher than 20% of the response of FC-A. Red squares are compounds that appeared positive in the negative control without 14-3-3. […] Background polarization was subtracted from all values, n = 3 technical replicates. Compounds selected for further analysis are indicated with an asterisk. e Polarization in the absence of 14-3-3. […] Source data are provided as a Source Data file.
(§2) The FITC-labeled peptides were dissolved in FP buffer (10 mM HEPES pH 7.4, 150 mM NaCl, 0.1% Tween20, 1 mg/mL BSA) to a final concentration of 100 nM or 10 nM. For the dose-response assays, a 14-3-3β concentration of 10 μM was used while titrating the compounds in a two-times dilution series and, for the other assays, a dilution series of 14-3-3β was made with constant concentration of compound. The dilution series were made in 384 Corning Black Round Bottom well plates and their polarization was measured with a Tecan Infinite F500 plate reader (ex. = 485 nm, em. = 535 nm). The method of fitting of the curves was: “log(agonist) vs. response – Variable slope (four parameters)” from GraphPad Prism. The equation is Y = Bottom + (Top-Bottom)/(1 + 10^((LogEC50-X)*HillSlope)).

[2] = molecular target: T2, 14-3-3β/CFTRpS753pS768 complex (Homo sapiens, UniProt P13569+P31946); assay: Dose-response fluorescence polarization (FP) assay, compound titration; type: binding; conditions: for FP signal: With 14-3-3; for Polarization, background subtracted: 14-3-3 10 μM, peptide 100 nM, replicates
T2 construct: His6 (cleaved yes); made in house; peptide synthetic
Description: as §1, with “file. […]” for “file.”
as §2

T1 sequence (P13569 747-774 limits assumed): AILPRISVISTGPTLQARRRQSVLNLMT
T2 sequence (P31946 whole entry): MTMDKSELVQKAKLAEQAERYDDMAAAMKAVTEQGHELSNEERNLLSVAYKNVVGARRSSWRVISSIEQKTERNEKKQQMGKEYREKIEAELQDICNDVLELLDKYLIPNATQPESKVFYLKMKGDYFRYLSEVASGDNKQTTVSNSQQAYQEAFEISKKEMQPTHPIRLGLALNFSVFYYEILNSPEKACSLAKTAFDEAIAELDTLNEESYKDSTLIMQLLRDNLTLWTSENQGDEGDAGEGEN

SMILES: N=C(N)NCCCC1NC(=O)C(Cc2ccccc2)NC(=O)C2(CCC(c3ccccc3)CC2)NCc2cccc(c2)-c2ccccc2CNC(=O)C(Cc2c[nH]c3ccccc23)NC1=O (centres unmarked) [CY007183]
- FP signal ([1]; compound 338.6 pM): 2
- FP signal ([1]; compound 677.1 pM): 4
- FP signal ([1]; compound 1.35422e-9 M): 3
- FP signal ([1]; compound 2.70843e-9 M): 4
- FP signal ([1]; compound 5.41687e-9 M): 4
- FP signal ([1]; compound 1.08337e-8 M): 2
- FP signal ([1]; compound 2.16675e-8 M): 4
- FP signal ([1]; compound 4.3335e-8 M): 3
- FP signal ([1]; compound 8.66699e-8 M): 2
- FP signal ([1]; compound 1.7334e-7 M): 4
- FP signal ([1]; compound 3.4668e-7 M): 4
- FP signal ([1]; compound 6.93359e-7 M): 5
- FP signal ([1]; compound 1.38672e-6 M): 7
- FP signal ([1]; compound 2.77344e-6 M): 8
- FP signal ([1]; compound 5.54688e-6 M): 14
- FP signal ([1]; compound 1.10938e-5 M): 24
- FP signal ([1]; compound 2.21875e-5 M): 49
- FP signal ([1]; compound 4.4375e-5 M): 80
- FP signal ([1]; compound 8.875e-5 M): 145
- FP signal ([1]; compound 0.0001775 M): 211
- FP signal ([1]; compound 0.000355 M): 249
- FP signal ([1]; compound 0.00071 M): 275
- EC50 ([2]; 14-3-3β 10 μM, labeled CFTRpS753pS768 100 nM): False positive
- FP signal ([2]; compound 338.6 pM): 2
- FP signal ([2]; compound 677.1 pM): 4
- FP signal ([2]; compound 1.35422e-9 M): 3
- FP signal ([2]; compound 2.70843e-9 M): 4
- FP signal ([2]; compound 5.41687e-9 M): 4
- FP signal ([2]; compound 1.08337e-8 M): 2
- FP signal ([2]; compound 2.16675e-8 M): 4
- FP signal ([2]; compound 4.3335e-8 M): 3
- FP signal ([2]; compound 8.66699e-8 M): 2
- FP signal ([2]; compound 1.7334e-7 M): 4
- FP signal ([2]; compound 3.4668e-7 M): 4
- FP signal ([2]; compound 6.93359e-7 M): 5
- FP signal ([2]; compound 1.38672e-6 M): 7
- FP signal ([2]; compound 2.77344e-6 M): 8
- FP signal ([2]; compound 5.54688e-6 M): 14
- FP signal ([2]; compound 1.10938e-5 M): 24
- FP signal ([2]; compound 2.21875e-5 M): 49
- FP signal ([2]; compound 4.4375e-5 M): 80
- FP signal ([2]; compound 8.875e-5 M): 145
- FP signal ([2]; compound 0.0001775 M): 211
- FP signal ([2]; compound 0.000355 M): 249
- FP signal ([2]; compound 0.00071 M): 275

SMILES: NCCCC1NC(=O)C(Cc2ccc(-c3ccccc3)cc2)NCc2ccccc2Sc2ccccc2CNC1=O (centres unmarked) [CY001110]
- Polarization in the absence of 14-3-3, background subtracted ([1]; compound 7.8125e-7 M): 0.06667 and 0.2667 and -0.03333
- Polarization in the absence of 14-3-3, background subtracted ([1]; compound 1.5625e-6 M): -0.3333 and -0.6333 (2×)
- Polarization in the absence of 14-3-3, background subtracted ([1]; compound 3.125e-6 M): -0.6333 and 0.1667 and -0.7333
- Polarization in the absence of 14-3-3, background subtracted ([1]; compound 6.25e-6 M): -1.333 (2×) and -0.9333
- Polarization in the absence of 14-3-3, background subtracted ([1]; compound 1.25e-5 M): 0.06667 and -0.2333 and 0.1667
- Polarization in the absence of 14-3-3, background subtracted ([1]; compound 2.5e-5 M): -0.8333 and -1.033 and -0.2333
- Polarization in the absence of 14-3-3, background subtracted ([1]; compound 5e-5 M): -0.3333 and 0.2667 (2×)
- Polarization in the absence of 14-3-3, background subtracted ([1]; compound 0.0001 M): 0.2667 and 1.467 and 3.067
- Polarization, background subtracted ([2]; compound 7.8125e-7 M): -1.033 and -2.233 and -1.933
- Polarization, background subtracted ([2]; compound 1.5625e-6 M): -4.033 and -5.333 and -2.333
- Polarization, background subtracted ([2]; compound 3.125e-6 M): -5.033 (2×) and -4.933
- Polarization, background subtracted ([2]; compound 6.25e-6 M): -4.133 and -2.733 and -3.633
- Polarization, background subtracted ([2]; compound 1.25e-5 M): 1.867 and 3.867 and 0.9667
- Polarization, background subtracted ([2]; compound 2.5e-5 M): 13.4667 and 18.8667 and 13.1667
- Polarization, background subtracted ([2]; compound 5e-5 M): 40.8667 and 54.6667 and 41.6667
- Polarization, background subtracted ([2]; compound 0.0001 M): 97.2667 and 108.167 and 99.8667

SMILES: NCCCC1NCc2ccccc2Sc2ccccc2CNC(=O)C(Cc2c[nH]c3ccccc23)NC(=O)C(Cc2ccccc2)NC1=O (centres unmarked) [CY000970]
- Polarization in the absence of 14-3-3, background subtracted ([1]; compound 7.8125e-7 M): 1.267 and 1.067 and 0.9667
- Polarization in the absence of 14-3-3, background subtracted ([1]; compound 1.5625e-6 M): 0.5667 and 0.1667 and -0.03333
- Polarization in the absence of 14-3-3, background subtracted ([1]; compound 3.125e-6 M): 1.367 and 2.667 and 1.467
- Polarization in the absence of 14-3-3, background subtracted ([1]; compound 6.25e-6 M): 1.367 and 2.167 and 2.967
- Polarization in the absence of 14-3-3, background subtracted ([1]; compound 1.25e-5 M): 6.867 (2×) and 8.667
- Polarization in the absence of 14-3-3, background subtracted ([1]; compound 2.5e-5 M): 12.7667 and 12.6667 and 13.5667
- Polarization in the absence of 14-3-3, background subtracted ([1]; compound 5e-5 M): 29.6667 and 26.2667 and 32.2667
- Polarization in the absence of 14-3-3, background subtracted ([1]; compound 0.0001 M): 49.4667 and 44.0667 and 55.9667
- Polarization, background subtracted ([2]; compound 7.8125e-7 M): 3.967 and 7.467 and 1.967
- Polarization, background subtracted ([2]; compound 1.5625e-6 M): 3.067 and 3.467 and 2.467
- Polarization, background subtracted ([2]; compound 3.125e-6 M): 6.467 and 6.067 and 3.767
- Polarization, background subtracted ([2]; compound 6.25e-6 M): 9.367 and 10.5667 and 10.2667
- Polarization, background subtracted ([2]; compound 1.25e-5 M): 21.1667 and 31.0667 and 29.9667
- Polarization, background subtracted ([2]; compound 2.5e-5 M): 47.8667 and 51.0667 and 48.4667
- Polarization, background subtracted ([2]; compound 5e-5 M): 75.6667 and 90.6667 and 83.6667
- Polarization, background subtracted ([2]; compound 0.0001 M): 125.667 and 143.267 and 127.367
